Assay results: PubChem BioAssay (NCI)
Values joined by “and” are separate entries in the source; they are usually repeats but may differ in a detail not shown here. Identical values can stand only once.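 Five compound concentrations were applied to cells in 96-well plates for 48 hours; endpoints were derived by simple linear interpolation of the resulting dose-response curve. GI50 is the concentration that inhibits growth by half. At the TGI there is no net growth.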

Tests used:
Experiment in all cases: NCI anticancer screen, dose series, 48 h
PC-3 prostate = tested on: PC-3 prostate
NCI-H226 lung = tested on: NCI-H226 lung
HOP-92 NSCLC = tested on: HOP-92 NSCLC
MDA-MB-435 = tested on: MDA-MB-435
OVCAR-4 ovarian = tested on: OVCAR-4 ovarian
OVCAR-8 ovarian = tested on: OVCAR-8 ovarian
M14 melanoma = tested on: M14 melanoma
SF-295 CNS = tested on: SF-295 CNS
CCRF-CEM leukemia = tested on: CCRF-CEM leukemia
IGROV1 ovarian = tested on: IGROV1 ovarian

CCCCN(CCCC)CCCn1c(=O)c2c3ccccc3n(C)c2n2nnc(-c3ccccc3)c12
GI50 (PC-3 prostate): 18.2 µM
TGI (PC-3 prostate): 47.4 µM
GI50 (NCI-H226 lung): 57 µM
TGI (NCI-H226 lung): > 100 µM
GI50 (HOP-92 NSCLC): 18.5 µM
TGI (HOP-92 NSCLC): 44.7 µM
GI50 (MDA-MB-435): 39 µM
TGI (MDA-MB-435): > 100 µM
GI50 (OVCAR-4 ovarian): 17.6 µM
TGI (OVCAR-4 ovarian): 83.9 µM
GI50 (OVCAR-8 ovarian): 39.7 µM
TGI (OVCAR-8 ovarian): > 100 µM
GI50 (M14 melanoma): 21.6 µM
TGI (M14 melanoma): > 100 µM
GI50 (SF-295 CNS): 31.9 µM
TGI (SF-295 CNS): > 100 µM
GI50 (CCRF-CEM leukemia): 4.22 µM
TGI (CCRF-CEM leukemia): 92 µM

O=C(NCC(O)CNC(=O)C(F)(F)F)C(F)(F)F
TGI (NCI-H226 lung): > 100 µM
TGI (HOP-92 NSCLC): > 100 µM
TGI (OVCAR-4 ovarian): > 100 µM
TGI (IGROV1 ovarian): > 100 µM
TGI (OVCAR-8 ovarian): > 100 µM
TGI (M14 melanoma): > 100 µM
TGI (SF-295 CNS): > 100 µM
TGI (CCRF-CEM leukemia): > 100 µM

COc1cc(O)c2c(c1)C(=O)c1cc3c(c(O)c1C2=O)C(OC1OC(C)C(O)C(O)C1OC)C(OC)C(C)(O)C3=O (stereo not drawn)
GI50 (PC-3 prostate): 2.57 µM
TGI (PC-3 prostate): 12.3 µM
GI50 (NCI-H226 lung): 2.22 µM
TGI (NCI-H226 lung): 4.82 µM and 9.03 µM
GI50 (HOP-92 NSCLC): 2 µM
TGI (HOP-92 NSCLC): 8.49 µM and 1.81 µM
GI50 (OVCAR-4 ovarian): 1.7 µM
TGI (OVCAR-4 ovarian): 8.04 µM and 2.64 µM
TGI (IGROV1 ovarian): 7.16 µM
GI50 (OVCAR-8 ovarian): 1.42 µM and 0.373 µM
TGI (OVCAR-8 ovarian): 5.27 µM and 1.62 µM
GI50 (M14 melanoma): 1.69 µM
TGI (M14 melanoma): 3.65 µM
GI50 (SF-295 CNS): 1.53 µM
TGI (SF-295 CNS): 4.7 µM and 5.97 µM
GI50 (CCRF-CEM leukemia): 3.07 µM and 13.4 µM
TGI (CCRF-CEM leukemia): > 100 µM and 74.1 µM

COc1cc2c(cc1OC)C(=O)Cc1ccc(OC)c(OC)c1CN(C)CC2
TGI (NCI-H226 lung): > 100 µM
TGI (HOP-92 NSCLC): 98.5 µM
TGI (OVCAR-4 ovarian): > 100 µM
TGI (IGROV1 ovarian): > 100 µM
TGI (OVCAR-8 ovarian): > 100 µM
TGI (M14 melanoma): > 100 µM
TGI (CCRF-CEM leukemia): > 100 µM

O=C1c2ccccc2C(=O)N1C/C=C/CO
TGI (NCI-H226 lung): > 100 µM
TGI (OVCAR-4 ovarian): > 100 µM
TGI (IGROV1 ovarian): > 100 µM
TGI (OVCAR-8 ovarian): > 100 µM
TGI (M14 melanoma): > 100 µM
TGI (CCRF-CEM leukemia): > 100 µM

COc1ccc(OC)c(-c2cc(=O)c3c(OC)c(OC)c(OC)c(OC)c3o2)c1
TGI (NCI-H226 lung): 77.8 µM
TGI (HOP-92 NSCLC): 57.7 µM
TGI (MDA-MB-435): > 100 µM
TGI (OVCAR-4 ovarian): 88.7 µM
TGI (IGROV1 ovarian): > 100 µM
TGI (OVCAR-8 ovarian): > 100 µM
TGI (M14 melanoma): > 100 µM
TGI (SF-295 CNS): 48.4 µM
TGI (CCRF-CEM leukemia): > 100 µM

CSCCOC(=O)C(=[N+]=[N-])c1ccc([N+](=O)[O-])cc1
TGI (NCI-H226 lung): > 100 µM
TGI (OVCAR-4 ovarian): > 100 µM
TGI (IGROV1 ovarian): > 100 µM
TGI (OVCAR-8 ovarian): > 100 µM
TGI (M14 melanoma): > 100 µM
TGI (SF-295 CNS): > 100 µM
TGI (CCRF-CEM leukemia): > 100 µM

C/C(=C\COc1c2c(cc3c1CCO3)OC1(C=C2)OC(CC/C(C)=C/COc2c3ccoc3cc3oc(=O)ccc23)C(C)(C)O1)CCC(O)C(C)(C)O (stereo not drawn)
GI50 (PC-3 prostate): 6.56 µM
TGI (PC-3 prostate): > 100 µM
GI50 (NCI-H226 lung): 58.7 µM
TGI (NCI-H226 lung): > 100 µM
GI50 (HOP-92 NSCLC): 7.56 µM
TGI (HOP-92 NSCLC): > 100 µM
GI50 (MDA-MB-435): 36.4 µM
TGI (MDA-MB-435): > 100 µM
GI50 (OVCAR-4 ovarian): 6.23 µM
TGI (OVCAR-4 ovarian): > 100 µM
GI50 (OVCAR-8 ovarian): 8.56 µM
TGI (OVCAR-8 ovarian): > 100 µM
GI50 (M14 melanoma): 85.1 µM
TGI (M14 melanoma): > 100 µM
GI50 (SF-295 CNS): 9.09 µM
TGI (SF-295 CNS): > 100 µM
GI50 (CCRF-CEM leukemia): 8.78 µM
TGI (CCRF-CEM leukemia): > 100 µM

O=C(NC1C2CC3CC(C2)CC1C3)c1cc(/C=C/c2ccccc2)[nH]c(=S)n1 (stereo not drawn)
TGI (OVCAR-4 ovarian): > 100 µM
TGI (IGROV1 ovarian): > 100 µM
TGI (OVCAR-8 ovarian): > 100 µM
TGI (M14 melanoma): > 100 µM
TGI (SF-295 CNS): > 100 µM
TGI (CCRF-CEM leukemia): > 100 µM

O=C1CC(O)(c2ccccc2)C(c2ccccc2)=C1c1ccccc1 (stereo not drawn)
TGI (HOP-92 NSCLC): 61.3 µM
TGI (OVCAR-4 ovarian): > 100 µM
TGI (IGROV1 ovarian): > 100 µM
TGI (OVCAR-8 ovarian): > 100 µM
TGI (M14 melanoma): > 100 µM
TGI (SF-295 CNS): > 100 µM
TGI (CCRF-CEM leukemia): > 100 µM
